In PMC6494879, “Drug resistance emergence in macaques administered cabotegravir long-acting for pre-exposure prophylaxis during acute SHIV infection” (Nature Communications, 2019):

Test system: RT-SHIV
Assay: Plasma SHIV RNA (RT-PCR) in RT-SHIV-infected macaques treated with CAB LA
Method: CAB LA (200 mg/mL injectable stock aqueous suspension) was given at a dose of 50 mg kg^−1 under anesthesia by intramuscular injection into the quadriceps. Volumes greater than 1.0 mL were divided into two injection sites.

C[C@H]1CO[C@@H]2Cn3cc(C(=O)NCc4ccc(F)cc4F)c(=O)c(O)c3C(=O)N12 [CAB, cabotegravir]
SHIV RNA copies/ml (macaque 01D520, day 14): 213778 copies/ml | SHIV RNA copies/ml (macaque 01D520, day 16): 25703 copies/ml | SHIV RNA copies/ml (macaque 01D520, day 18): 6247 copies/ml | SHIV RNA copies/ml (macaque 01D520, day 22): 1187 copies/ml | SHIV RNA copies/ml (macaque 01D520, day 25): 478 copies/ml | SHIV RNA copies/ml (macaque 01D520, day 29): 2040 copies/ml | SHIV RNA copies/ml (macaque 01D520, day 32): 390 copies/ml | SHIV RNA copies/ml (macaque 01D520, day 36): 49 copies/ml | SHIV RNA copies/ml (macaque 01D520, day 39): 316 copies/ml | SHIV RNA copies/ml (macaque 01D520, day 43): 144 copies/ml | SHIV RNA copies/ml (macaque 01D520, day 46): 49 copies/ml | SHIV RNA copies/ml (macaque 01D520, day 50): 49 copies/ml | SHIV RNA copies/ml (macaque 01D520, day 53): 71 copies/ml | SHIV RNA copies/ml (macaque 01D520, day 57): 49 copies/ml | SHIV RNA copies/ml (macaque 01D520, day 60): 49 copies/ml | SHIV RNA copies/ml (macaque 01D520, day 64): 49 copies/ml | SHIV RNA copies/ml (macaque 01D520, day 67): 250 copies/ml | SHIV RNA copies/ml (macaque 10D181, day 14): 179379 copies/ml | SHIV RNA copies/ml (macaque 10D181, day 16): 39172 copies/ml | SHIV RNA copies/ml (macaque 10D181, day 18): 9142 copies/ml | SHIV RNA copies/ml (macaque 10D181, day 22): 2006 copies/ml | SHIV RNA copies/ml (macaque 10D181, day 25): 507 copies/ml | SHIV RNA copies/ml (macaque 10D181, day 29): 2459 copies/ml | SHIV RNA copies/ml (macaque 10D181, day 32): 444 copies/ml | SHIV RNA copies/ml (macaque 10D181, day 36): 906 copies/ml | SHIV RNA copies/ml (macaque 10D181, day 39): 1839 copies/ml | SHIV RNA copies/ml (macaque 10D181, day 43): 2744 copies/ml | SHIV RNA copies/ml (macaque 10D181, day 46): 344 copies/ml | SHIV RNA copies/ml (macaque 10D181, day 50): 294 copies/ml | SHIV RNA copies/ml (macaque 10D181, day 53): 756 copies/ml | SHIV RNA copies/ml (macaque 10D181, day 57): 241 copies/ml | SHIV RNA copies/ml (macaque 10D181, day 60): 971 copies/ml | SHIV RNA copies/ml (macaque 10D181, day 64): 2139 copies/ml | SHIV RNA copies/ml (macaque 33996, day 14): 154663 copies/ml | SHIV RNA copies/ml (macaque 33996, day 16): 9000 copies/ml | SHIV RNA copies/ml (macaque 33996, day 18): 1964 copies/ml | SHIV RNA copies/ml (macaque 33996, day 22): 112 copies/ml | SHIV RNA copies/ml (macaque 33996, day 25): 141 copies/ml | SHIV RNA copies/ml (macaque 33996, day 29): 25 copies/ml | SHIV RNA copies/ml (macaque 33996, day 32): 55 copies/ml | SHIV RNA copies/ml (macaque 33996, day 36): 49 copies/ml | SHIV RNA copies/ml (macaque 33996, day 39): 49 copies/ml | SHIV RNA copies/ml (macaque 33996, day 43): 49 copies/ml | SHIV RNA copies/ml (macaque 33996, day 46): 49 copies/ml | SHIV RNA copies/ml (macaque 33996, day 50): 49 copies/ml | SHIV RNA copies/ml (macaque 33996, day 53): 49 copies/ml | SHIV RNA copies/ml (macaque 33996, day 57): 49 copies/ml | SHIV RNA copies/ml (macaque 33996, day 60): 14 copies/ml | SHIV RNA copies/ml (macaque 33996, day 64): 59 copies/ml | SHIV RNA copies/ml (macaque 35451, day 14): 32948 copies/ml | SHIV RNA copies/ml (macaque 35451, day 16): 24534 copies/ml | SHIV RNA copies/ml (macaque 35451, day 18): 5566 copies/ml | SHIV RNA copies/ml (macaque 35451, day 22): 189 copies/ml | SHIV RNA copies/ml (macaque 35451, day 25): 365 copies/ml | SHIV RNA copies/ml (macaque 35451, day 29): 487 copies/ml | SHIV RNA copies/ml (macaque 35451, day 32): 189 copies/ml | SHIV RNA copies/ml (macaque 35451, day 36): 262 copies/ml | SHIV RNA copies/ml (macaque 35451, day 39): 194 copies/ml | SHIV RNA copies/ml (macaque 35451, day 43): 240 copies/ml | SHIV RNA copies/ml (macaque 35451, day 46): 77 copies/ml | SHIV RNA copies/ml (macaque 35451, day 50): 318 copies/ml | SHIV RNA copies/ml (macaque 35451, day 53): 134 copies/ml | SHIV RNA copies/ml (macaque 35451, day 57): 132 copies/ml | SHIV RNA copies/ml (macaque 35451, day 60): 90 copies/ml | SHIV RNA copies/ml (macaque 35451, day 64): 800 copies/ml | SHIV RNA copies/ml (macaque 35451, day 67): 104 copies/ml | SHIV RNA copies/ml (macaque CH54, day 14): 680147 copies/ml | SHIV RNA copies/ml (macaque CH54, day 16): 142531 copies/ml | SHIV RNA copies/ml (macaque CH54, day 18): 87386 copies/ml | SHIV RNA copies/ml (macaque CH54, day 22): 4318 copies/ml | SHIV RNA copies/ml (macaque CH54, day 25): 279 copies/ml | SHIV RNA copies/ml (macaque CH54, day 29): 2506 copies/ml | SHIV RNA copies/ml (macaque CH54, day 32): 3049 copies/ml | SHIV RNA copies/ml (macaque CH54, day 36): 1291 copies/ml | SHIV RNA copies/ml (macaque CH54, day 39): 1031 copies/ml | SHIV RNA copies/ml (macaque CH54, day 43): 750 copies/ml | SHIV RNA copies/ml (macaque CH54, day 46): 485 copies/ml | SHIV RNA copies/ml (macaque CH54, day 50): 803 copies/ml | SHIV RNA copies/ml (macaque CH54, day 53): 49 copies/ml
